Experimental data: paper PMC10746543, “Design principles for cyclin K molecular glue degraders” (Nature Chemical Biology, 2023)
“And” between values parts separate entries of the source, which are not always exact repeats. Equal values may be shown once. Read-outs that look alike come from different tables or passages of the source.

Tests used:
HEK293T cells = assay: Drug sensitivity assay (CellTiter-Glo viability) with or without MLN4924 pretreatment; type: cell-based, human; conditions: Supplementary Table 2; for EC50: Homo sapiens, HEK-293T, HEK293T viability, 72 h, compound alone, read-out: Cellular assays EC50; for Toxicity rescue: MLN4924-mediated cytotoxicity rescue, 10 µM used where n.d.
Method in brief: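 First, cells (HEK293T–Cas9, 0.15 × 10^6 ml^−1) are exposed to DMSO or 100 nM MLN4924. Next, drugs follow at 2 h. Finally, CellTiter-Glo is read at day 3 and normalised to DMSO.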

[1] = tested on: cyclin K–eGFP degradation reporter; assay: Cyclin K reporter stability analysis (dual-color cyclin K–eGFP reporter); type: cell-based, human
Method in brief: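 Cells (HEK293T–Cas9, reporter-expressing) at 1 × 10^6 ml^−1; 5 h compound or DMSO; flow cytometry; gMFI eGFP ÷ mCherry on round mCherry-positive events; normalized to 3 DMSO controls.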

CDK12–cyclin K and DDB1 = target: T1, CDK12–cyclin K and DDB1 (Homo sapiens, UniProt Q16531+Q9NYV4, K965R); assay: TR-FRET ternary complex formation assay (compound titration); type: binding; conditions: for TR-FRET signal at compound concentration: replicate titrations
T1 construct: His6–CDK12 (a.a. 713–1,052); full-length or beta-propeller B domain deletion (ΔBPB: a.a. 396–705 deleted) constructs of His6–DDB1ΔBPB, StrepII–Avi–DDB1, or His6–Spy–DDB1; made in house; host or cells: Trichoplusia ni High Five insect cells (baculovirus)
T1 sequence (Q9NYV4 713-1052 K965R): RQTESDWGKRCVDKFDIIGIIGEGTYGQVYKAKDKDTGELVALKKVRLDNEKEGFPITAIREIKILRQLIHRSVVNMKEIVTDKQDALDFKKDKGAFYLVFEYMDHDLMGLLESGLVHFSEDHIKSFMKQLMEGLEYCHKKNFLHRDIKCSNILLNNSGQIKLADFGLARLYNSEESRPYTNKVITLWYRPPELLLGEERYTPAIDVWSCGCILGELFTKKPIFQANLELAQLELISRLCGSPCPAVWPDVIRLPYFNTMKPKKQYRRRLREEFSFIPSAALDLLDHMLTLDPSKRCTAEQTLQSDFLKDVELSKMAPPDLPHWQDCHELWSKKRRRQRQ
T1 sequence (O75909 1-267 partner): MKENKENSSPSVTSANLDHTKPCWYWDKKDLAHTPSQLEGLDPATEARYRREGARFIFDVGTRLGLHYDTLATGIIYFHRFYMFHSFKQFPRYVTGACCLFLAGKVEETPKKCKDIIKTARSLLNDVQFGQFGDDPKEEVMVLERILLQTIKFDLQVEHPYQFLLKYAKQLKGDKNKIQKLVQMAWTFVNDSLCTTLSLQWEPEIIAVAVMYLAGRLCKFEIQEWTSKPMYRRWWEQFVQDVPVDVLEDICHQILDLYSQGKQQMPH
T1 sequence (Q16531 whole entry): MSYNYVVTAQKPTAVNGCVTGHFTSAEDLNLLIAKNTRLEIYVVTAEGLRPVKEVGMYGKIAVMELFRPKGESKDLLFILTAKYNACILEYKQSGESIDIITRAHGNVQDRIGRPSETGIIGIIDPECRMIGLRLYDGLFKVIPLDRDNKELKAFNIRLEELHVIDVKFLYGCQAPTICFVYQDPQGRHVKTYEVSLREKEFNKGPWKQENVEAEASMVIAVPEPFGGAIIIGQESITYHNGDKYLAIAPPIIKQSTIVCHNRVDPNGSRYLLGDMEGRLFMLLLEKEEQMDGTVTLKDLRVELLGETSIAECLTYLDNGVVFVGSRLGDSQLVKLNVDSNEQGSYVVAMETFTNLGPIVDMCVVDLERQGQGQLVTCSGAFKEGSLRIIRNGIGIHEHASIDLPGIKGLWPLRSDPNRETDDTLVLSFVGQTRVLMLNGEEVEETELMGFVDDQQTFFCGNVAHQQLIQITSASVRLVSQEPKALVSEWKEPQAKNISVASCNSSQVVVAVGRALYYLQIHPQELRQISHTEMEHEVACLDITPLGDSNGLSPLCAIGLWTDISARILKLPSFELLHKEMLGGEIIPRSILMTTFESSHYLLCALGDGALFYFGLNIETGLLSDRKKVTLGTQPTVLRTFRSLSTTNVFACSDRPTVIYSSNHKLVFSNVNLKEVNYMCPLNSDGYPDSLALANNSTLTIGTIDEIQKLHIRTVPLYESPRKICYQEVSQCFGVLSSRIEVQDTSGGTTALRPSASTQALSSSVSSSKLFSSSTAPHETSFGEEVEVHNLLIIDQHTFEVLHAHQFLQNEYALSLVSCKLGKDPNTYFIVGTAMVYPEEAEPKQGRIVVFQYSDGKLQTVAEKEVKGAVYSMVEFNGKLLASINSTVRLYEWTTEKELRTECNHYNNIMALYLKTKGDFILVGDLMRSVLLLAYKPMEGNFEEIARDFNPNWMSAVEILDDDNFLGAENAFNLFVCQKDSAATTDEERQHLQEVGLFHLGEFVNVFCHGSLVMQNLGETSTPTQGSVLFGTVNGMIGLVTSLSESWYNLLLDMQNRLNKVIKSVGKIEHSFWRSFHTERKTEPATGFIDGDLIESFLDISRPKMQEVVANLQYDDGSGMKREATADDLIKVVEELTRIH
Method in brief: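 Background fluorescence is reduced by reading 70 μs after excitation, and complex formation is followed as the 520:490 nm fluorescence ratio.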

[2] = Supplementary Table 2, HEK293T cycK-eGFP reporter, 5 h, read-out: Cellular assays DC50
[3] = compound concentration 79.2001 nM
[4] = compound concentration 158.4 nM
[5] = compound concentration 309.6 nM
[6] = compound concentration 626.401 nM
[7] = compound concentration 1252.8 nM
[8] = compound concentration 9936.01 nM
[9] = compound concentration 20016 nM
[10] = in vitro complex formation, 50 nM CDK12–cyclin K, 100 nM DDB1, text and figures, read-out: TR-FRET EC50
[11] = source data sheet correlations, read-out: DC50
[12] = sheet MOESM7, read-out: log TR-FRET EC50 (converted)
[13] = source data sheet correlations, read-out: TR-FRET EC50

SMILES: CC[C@H](CO)Nc1nc(NCc2ccc3cc(O)ccc3c2)c2ncn(C(C)C)c2n1 [DS14]
- EC50 (HEK293T cells): > 10 µM
- Toxicity rescue (HEK293T cells): 0%
- DC50 [1, 2]: > 10 µM
- TR-FRET signal (CDK12–cyclin K and DDB1; compound concentration 4.68 nM): 0.1364 and 0.1548
- TR-FRET signal (CDK12–cyclin K and DDB1; compound concentration 21.6 nM): 0.1403 and 0.1585
- TR-FRET signal (CDK12–cyclin K and DDB1; compound concentration 36 nM): 0.1464 and 0.1703
- TR-FRET signal (CDK12–cyclin K and DDB1; [3]): 0.164 and 0.1861
- TR-FRET signal (CDK12–cyclin K and DDB1; [4]): 0.1899 and 0.214
- TR-FRET signal (CDK12–cyclin K and DDB1; [5]): 0.2284 and 0.2573
- TR-FRET signal (CDK12–cyclin K and DDB1; [6]): 0.2863 and 0.3257
- TR-FRET signal (CDK12–cyclin K and DDB1; [7]): 0.3495 and 0.4048
- TR-FRET signal (CDK12–cyclin K and DDB1; compound concentration 2448 nM): 0.4136 and 0.4783
- TR-FRET signal (CDK12–cyclin K and DDB1; [8]): 0.5447 and 0.6287
- TR-FRET signal (CDK12–cyclin K and DDB1; [9]): 0.6134 and 0.6953
- EC50 (CDK12–cyclin K and DDB1; [10]): 2360 ± 777 nM

SMILES: COc1ccccc1CCNC(=O)CNc1nc(NCc2ccc(-c3ccccn3)cc2)c2ncn(C(C)C)c2n1 [DS50]
- EC50 (HEK293T cells): > 10 µM
- Toxicity rescue (HEK293T cells): 0%
- DC50 [1, 11]: 3.57 µM
- TR-FRET signal at compound concentration 4.68 nM (CDK12–cyclin K and DDB1; compound concentration 4.68 nM, raw titration data): 0.2095 and 0.2212
- TR-FRET signal at compound concentration 21.6 nM (CDK12–cyclin K and DDB1; compound concentration 21.6 nM, raw titration data): 0.2225 and 0.2323
- TR-FRET signal at compound concentration 36 nM (CDK12–cyclin K and DDB1; compound concentration 36 nM, raw titration data): 0.253 and 0.2736
- TR-FRET signal at compound concentration 79.2001 nM (CDK12–cyclin K and DDB1; compound concentration 79.2001 nM, raw titration data): 0.3096 and 0.3199
- TR-FRET signal at compound concentration 158.4 nM (CDK12–cyclin K and DDB1; compound concentration 158.4 nM, raw titration data): 0.4094 and 0.4186
- TR-FRET signal at compound concentration 309.6 nM (CDK12–cyclin K and DDB1; compound concentration 309.6 nM, raw titration data): 0.5758 and 0.5879
- TR-FRET signal at compound concentration 626.401 nM (CDK12–cyclin K and DDB1; compound concentration 626.401 nM, raw titration data): 0.9565 and 0.9048
- TR-FRET signal at compound concentration 1252.8 nM (CDK12–cyclin K and DDB1; compound concentration 1252.8 nM, raw titration data): 1.567 and 1.497
- TR-FRET signal at compound concentration 2448 nM (CDK12–cyclin K and DDB1; compound concentration 2448 nM, raw titration data): 2.482 and 2.457
- TR-FRET signal at compound concentration 9936.01 nM (CDK12–cyclin K and DDB1; compound concentration 9936.01 nM, raw titration data): 3.626 and 3.7316
- TR-FRET signal at compound concentration 20016 nM (CDK12–cyclin K and DDB1; compound concentration 20016 nM, raw titration data): 3.761 and 3.946
- EC50 (CDK12–cyclin K and DDB1; [12]): 1920 nM
- EC50 (CDK12–cyclin K and DDB1; [13]): 1920 nM

SMILES: CC[C@H](CO)Nc1nc(NCCCc2ccc(C)c(C)c2)c2ncn(C(C)C)c2n1 [DS66]
- EC50 (HEK293T cells): > 10 µM
- Toxicity rescue (HEK293T cells): 0%
- DC50 [1, 11]: 0.088 µM
- TR-FRET signal at compound concentration (CDK12–cyclin K and DDB1; compound concentration 0.468 nM): 0.2923 and 0.3076 and 0.198 and 0.2218
- TR-FRET signal at compound concentration (CDK12–cyclin K and DDB1; compound concentration 2.16 nM): 0.3989 and 0.4255 and 0.2838 and 0.3021
- TR-FRET signal at compound concentration (CDK12–cyclin K and DDB1; compound concentration 3.6 nM): 0.6137 and 0.6924 and 0.4704 and 0.4752
- TR-FRET signal at compound concentration (CDK12–cyclin K and DDB1; compound concentration 7.92001 nM): 1.224 and 1.234 and 0.9118 and 0.9562
- TR-FRET signal at compound concentration (CDK12–cyclin K and DDB1; compound concentration 15.84 nM): 2 and 2.2 and 1.736 and 1.809
- TR-FRET signal at compound concentration (CDK12–cyclin K and DDB1; compound concentration 30.96 nM): 3.161 and 3.3799 and 3.037 and 2.9897
- TR-FRET signal at compound concentration (CDK12–cyclin K and DDB1; compound concentration 62.6401 nM): 3.7362 and 4.009 and 3.696 and 3.655
- TR-FRET signal at compound concentration (CDK12–cyclin K and DDB1; compound concentration 125.28 nM): 3.905 and 4.159 and 3.906 and 3.9109
- TR-FRET signal at compound concentration (CDK12–cyclin K and DDB1; compound concentration 244.8 nM): 4.008 and 4.194 and 3.9625 and 4.012
- TR-FRET signal at compound concentration (CDK12–cyclin K and DDB1; compound concentration 993.601 nM): 4.134 and 4.267 and 4.125 and 4.115
- TR-FRET signal at compound concentration (CDK12–cyclin K and DDB1; compound concentration 2001.6 nM): 4.074 and 4.31 and 4.121 and 4.142
- EC50 (CDK12–cyclin K and DDB1; [10]): 18 ± 1 nM
- EC50 (CDK12–cyclin K and DDB1; [12]): 17.7 nM
- EC50 (CDK12–cyclin K and DDB1; [13]): 17.7 nM

SMILES: CC[C@H](CO)Nc1nc(NCCCc2ccncc2)c2ncn(C(C)C)c2n1 [DS27]
- EC50 (HEK293T cells): > 10 µM
- Toxicity rescue (HEK293T cells): 0%
- DC50 [1, 2]: > 10 µM
- TR-FRET signal at compound concentration (CDK12–cyclin K and DDB1; compound concentration 4.68 nM): 0.135 and 0.1336
- TR-FRET signal at compound concentration (CDK12–cyclin K and DDB1; compound concentration 21.6 nM): 0.1436 and 0.1394
- TR-FRET signal at compound concentration (CDK12–cyclin K and DDB1; compound concentration 36 nM): 0.1546 and 0.1561
- TR-FRET signal at compound concentration (CDK12–cyclin K and DDB1; [3]): 0.1838 and 0.187
- TR-FRET signal at compound concentration (CDK12–cyclin K and DDB1; [4]): 0.2226 and 0.2249
- TR-FRET signal at compound concentration (CDK12–cyclin K and DDB1; [5]): 0.2777 and 0.285
- TR-FRET signal at compound concentration (CDK12–cyclin K and DDB1; [6]): 0.3467 and 0.3568
- TR-FRET signal at compound concentration (CDK12–cyclin K and DDB1; [7]): 0.4111 and 0.4466
- TR-FRET signal at compound concentration (CDK12–cyclin K and DDB1; compound concentration 2448 nM): 0.4906 and 0.4799
- TR-FRET signal at compound concentration (CDK12–cyclin K and DDB1; [8]): 0.5278 and 0.4844
- TR-FRET signal at compound concentration (CDK12–cyclin K and DDB1; [9]): 0.4733 and 0.5319
- EC50 (CDK12–cyclin K and DDB1; [10]): 456 ± 34 nM
